This is an account of results in PubChem BioAssay AID1645848.

The structures appear in SMILES notation. Values after ≈ are worked out from the molar mass of the structure shown.

For the series the following is noted: buffer; pH 7.4; 6.0 h; 150.0 µM.
Usually solubility (kinetic) stands for solubility judged after dilution from a stock solution rather than from solid. In turn, `COc1ccccc1C(=O)Nc1ccccc1C(=O)Nc1cccc(C(F)(F)F)c1` yielded a kinetic solubility of less than 1 µg/mL.

Take `Cc1cn2nc(-c3nc(C4CCCN(C(=O)c5ccccc5)C4)no3)cc2c(=O)[nH]1` (stereo not drawn): the solubility (kinetic) worked out at 27.5 µg/mL (≈ 68 µM).

Compound `O=C(Nc1nnc(-c2cccs2)o1)c1ccc(Cl)cc1` came in with a kinetic solubility of 6.09 µg/mL (≈ 19.9 µM).

Compound `Cc1nc(-c2ccco2)cc([C@H]2CN3CC[C@H]2C[C@@H]3CNC(=O)NC2CCCCC2)n1` gave a kinetic solubility of more than 63 µg/mL.

Consider `COc1cc(N2CCC(N3CCN(C)CC3)CC2)ccc1Nc1ncc(Cl)c(Nc2ccccc2P(C)(C)=O)n1`, for which the solubility (kinetic) is more than 86 µg/mL.

In turn, `CC(C)c1ccccc1-c1ncc(F)c(NC(C)(C)c2ccc(-c3cccnc3)cc2)n1` yielded a solubility (kinetic) of less than 1 µg/mL.

As for `Cc1ccc(S(=O)(=O)Nc2ccc(Cl)c(C(=O)Nc3nc(-c4ccccc4)cs3)c2)cc1`, the kinetic solubility was less than 1 µg/mL.

The compound `CC(Nc1ccc([S+](=O)([O-])Nc2nccs2)cc1)c1ccccc1` (stereo not drawn) showed a solubility (kinetic) of 4.76 µg/mL (≈ 13.3 µM).

As for `Fc1cc(-c2nc(Nc3ccc(F)c(F)c3)c3ccccc3n2)ccn1`, the kinetic solubility is less than 1 µg/mL.

As to `CCOC(=O)c1nnc(N[S+](=O)([O-])c2ccc(NC(=O)Cc3ccc(Cl)c(Cl)c3)cc2)s1`, the kinetic solubility was more than 76 µg/mL.

Turning to `Cc1ccc(S(=O)(=O)Nc2cnccc2C(=O)Nc2nc(-c3cnn(C)c3)cs2)cc1`, the kinetic solubility was determined as 25.4 µg/mL (≈ 55.8 µM).

The compound `CC(=O)Nc1ccc(NC(=O)C(NS(=O)(=O)c2ccc(Br)s2)c2ccccc2)cc1` (stereo not drawn) yielded a kinetic solubility of less than 1 µg/mL.

In turn, `CC(C)(C)c1ccc(-c2ccc(=O)n(CC(=O)NCCc3ccccc3)n2)cc1` yielded a kinetic solubility of less than 1 µg/mL.

`CC[C@@H]1C(=O)N(C)c2cnc(Nc3ccc(C(=O)NC4CCN(C)CC4)cc3OC)nc2N1C1CCCC1` showed a solubility (kinetic) of more than 77 µg/mL.

`O=C(O)c1cccc(-c2noc(-c3ccccc3F)n2)c1` returned a kinetic solubility of 7.02 µg/mL (≈ 24.7 µM).

On to `Cn1ccc2c(C(=O)NCCC(N)=O)nc(-c3cccc(CO)c3)cc21`, for which the kinetic solubility is more than 78 µg/mL.

For the compound `Cc1ccnc(NC(=O)C2CC(=O)N(c3n[nH]c4cc(Br)ccc34)C2)c1` (stereo not drawn), the kinetic solubility was less than 1 µg/mL.

`Cc1ccnc(NC(=S)N2CCC(Nc3cccc(C(F)(F)F)c3)CC2)c1` yielded a solubility (kinetic) of 6.4 µg/mL (≈ 16.2 µM).

`COc1cc(C(=O)NC2CCCc3c2[nH]c2ccccc32)cc(OC)c1OC` (stereo not drawn) gave a kinetic solubility of 7.26 µg/mL (≈ 19.1 µM).

On to `O=C(c1cnc(N2CCCCC2)c2ccccc12)N1CCN(c2ccc(Cl)cc2)CC1`, for which the kinetic solubility is less than 1 µg/mL.

`O=C(Nc1nc(-c2ccccc2)cs1)c1ccncc1NS(=O)(=O)c1c(F)cc(F)cc1F` had a solubility (kinetic) of 58 µg/mL (≈ 118 µM).

In the case of `CC(=O)c1c(C)[nH]c(C(=O)Nc2cccc([S+](=O)([O-])Nc3ccccc3C)c2)c1C`, the solubility (kinetic) is less than 1 µg/mL.

Compound `CN(C)[C@@H]1CCN(c2cccc(Nc3nn4c(=O)c5ccccc5nc4s3)c2)C1` gave a kinetic solubility of 18.1 µg/mL (≈ 44.4 µM).

Compound `CCOc1ccc(CCNC(=O)c2cc3cnccc3n2Cc2cccc(C)n2)cc1OCC` returned a kinetic solubility of more than 68 µg/mL.

`CC(C)Oc1ccc(-c2csc(N3CCC(C(N)=O)CC3)n2)cc1`: the kinetic solubility worked out at 11.7 µg/mL (≈ 33.8 µM).

`COc1ccccc1CN1CCNc2cc(Nc3ccccc3)ncc2C1` returned a solubility (kinetic) of more than 80 µg/mL.

For the compound `Cc1ccc(S(=O)(=O)Nc2cnccc2C(=O)Nc2nc(-c3ccncc3)cs2)cc1`, the solubility (kinetic) was more than 67 µg/mL.

Compound `CCOc1ccc(-c2cn3c(n2)sc2cc(C(=O)NCCCN(CC)CC)ccc23)cc1` showed a solubility (kinetic) of more than 67 µg/mL.

For `COc1ccc(-c2ccc3ncc(Nc4ccncc4)n3n2)cc1OC`, the kinetic solubility is 31.9 µg/mL (≈ 91.9 µM).

`COc1cc(-c2nc(Nc3ccc(F)c(F)c3)c3ccccc3n2)c(F)cn1` had a solubility (kinetic) of less than 1 µg/mL.

On to `NC(=O)c1sc2nc3c(c(-c4cccs4)c2c1N)CCCC3`, for which the solubility (kinetic) amounted to 0.293 µg/mL (≈ 0.889 µM).

For the compound `O=C(NC1CC1)c1ccc(CSCc2ccccc2Cl)o1`, the kinetic solubility was more than 47 µg/mL.

As to `CC(=O)c1c(C)c(C(=O)Nc2cccc([S+](=O)([O-])N3CCCCCC3)c2)n(C)c1C`, the solubility (kinetic) was less than 1 µg/mL.

The compound `O=C(Nc1ccc(OC(F)(F)Cl)cc1)c1cnc(N2CC[C@@H](O)C2)c(-c2ccn[nH]2)c1` returned a solubility (kinetic) of 14.6 µg/mL (≈ 32.4 µM).

In turn, `O=C1C(SCCO)=C(SCCO)C(=O)c2ccccc21` came in with a solubility (kinetic) of more than 31 µg/mL.

`CC(C)CC(C)NC(=O)c1noc(-c2ccc[nH]c2=O)n1` (stereo not drawn) had a kinetic solubility of more than 43 µg/mL.

In the case of `Cc1ccccc1C(=O)N1CCc2cc(-c3ccnc(NC(=O)Cc4ccccc4)n3)ccc21`, the kinetic solubility was found to be 6.19 µg/mL (≈ 13.8 µM).

`O=C(CCCN1CCC(n2c(=O)[nH]c3ccccc32)CC1)c1ccc(F)cc1` showed a kinetic solubility of 33.3 µg/mL (≈ 87.2 µM).

Consider `Nc1cc(CN2C(=O)c3ccccc3C2=O)cc(Cl)c1O`, for which the kinetic solubility was 20.8 µg/mL (≈ 68.8 µM). This solubility kinetic lies about 1.6-fold lower than the previous one.

Turning to `O=C(C1CC(=O)N(c2n[nH]c3ccccc23)C1)N1CCC(c2noc3cc(F)ccc23)CC1` (stereo not drawn), the solubility (kinetic) came out at 2.36 µg/mL (≈ 5.28 µM).

The compound `CC(=O)c1c(C)[nH]c(C(=O)Nc2cccc(S(=O)(=O)N3CCCCCC3)c2)c1C` came in with a solubility (kinetic) of 2.11 µg/mL (≈ 5.05 µM).

As for `C[C@]12CC[C@@H]3[C@H](CCC4=CC(=O)CC[C@]43C)[C@]1(O)CC[C@@]2(O)C(=O)CO`, the kinetic solubility was more than 54 µg/mL.

`COc1ccccc1C(=O)Nc1ccccc1C(=O)Nc1cccc(SC(F)(F)F)c1` showed a solubility (kinetic) of less than 1 µg/mL.

On to `COC(=O)c1ccnc(NC(=S)N2CCN(c3cccc(C(F)(F)F)c3)CC2)c1`, for which the kinetic solubility turned out to be 2.19 µg/mL (≈ 5.17 µM).

`Cc1cc(NC(=O)c2ccc(NC(=O)Cc3ccc(Cl)c(Cl)c3)cc2)no1`: the solubility (kinetic) is 1.43 µg/mL (≈ 3.55 µM). Against the preceding compound, the solubility kinetic is about 1.5-fold lower.

Regarding `COc1cccc(NS(=O)(=O)c2ccc(NCc3cccc(OC)c3O)cc2)c1`, the kinetic solubility was 1.92 µg/mL (≈ 4.64 µM).

`O=C1Cc2cc(C(=O)c3ccco3)ccc2N1` displayed a kinetic solubility of more than 34 µg/mL.

`CCOc1ccc(Nc2nc(C)c(NC(=O)c3ccc(C)cc3)c(Nc3ccc(OCC)cc3)n2)cc1` returned a kinetic solubility of less than 1 µg/mL.

`CC(C)Oc1ccc(C(=O)Nc2ccc3c(c2)CCCN3C(=O)c2cccs2)cc1` displayed a solubility (kinetic) of less than 1 µg/mL.

Compound `CN(C)C(=O)c1cc(-c2ccc(S(C)(=O)=O)cc2)c2cnn(C)c2n1` displayed a solubility (kinetic) of more than 53 µg/mL.

Compound `O=C1Nc2ccc(C(=O)c3ccco3)cc2/C1=C/c1cc(Cl)c(O)c(Cl)c1` came in with a kinetic solubility of 9.16 µg/mL (≈ 22.9 µM).

With `COc1cccc(CNc2ccc(C(=O)Nc3nccs3)cc2)c1O`, the solubility (kinetic) was less than 1 µg/mL.

Compound `N#Cc1cccc(-c2csc(N3CCC(C(N)=O)CC3)n2)c1` came in with a kinetic solubility of 10.7 µg/mL (≈ 34.3 µM).

The compound `O=C(c1ccc2c(c1)OCO2)N1CCC(Cc2nc(-c3cnccn3)no2)CC1` registered a solubility (kinetic) of more than 39 µg/mL.

Consider `Oc1ccccc1CN1CCNc2cc(Nc3ccccc3)ncc2C1`, for which the kinetic solubility worked out at 24.3 µg/mL (≈ 70.1 µM).

As to `CC(=O)c1ccc(N2CCN(S(=O)(=O)c3cc4c(cc3Cl)NC(=O)C4)CC2)cc1`, the kinetic solubility stood at 1.16 µg/mL (≈ 2.68 µM).

The compound `CNC(=O)c1cccc(-c2cnc(Nc3cccc(C(F)(F)F)c3)c3c2CCO3)c1` had a solubility (kinetic) of less than 1 µg/mL.

Turning to `CCc1cccc(CC)c1-n1c(C=C(C)C)c(C(=O)N2CCNCC2)cc(-c2nc(-c3ccc(C(F)(F)F)cc3)cs2)c1=O`, the kinetic solubility was less than 1 µg/mL.

`O=C1Nc2ccccc2/C1=C\c1ccc(C(=O)O)cc1` returned a kinetic solubility of more than 39 µg/mL.

Regarding `CN(C)c1ccc(-c2csc(N3CCC(C(N)=O)CC3)n2)cc1`, the kinetic solubility amounted to 3.78 µg/mL (≈ 11.4 µM).

As to `Cc1ccc(-c2nnc(N3CCC(C(N)=O)CC3)s2)cc1`, the kinetic solubility is 14.6 µg/mL (≈ 48.3 µM).

The compound `O=S(=O)(Nc1ccc(-c2cccnc2)c2cccnc12)c1cccc(C(F)(F)F)c1` gave a kinetic solubility of less than 1 µg/mL.

Compound `COc1cccc2nc(-c3cccs3)nc(NN3C(=O)C=C(C)C3=O)c12` came in with a kinetic solubility of more than 54 µg/mL.

`N#C/C(=C\c1ccc(-c2ccc(C(=O)O)cc2)o1)c1nc2ccccc2[nH]1` showed a solubility (kinetic) of less than 1 µg/mL.

`C#CCNC(=O)c1nc(-c2ccc(Cl)nc2)c2ccccn12`: the solubility (kinetic) came out at 2.64 µg/mL (≈ 8.5 µM).

Regarding `NC(CO)(CO)CCc1ccc(Sc2cccc(OCc3ccccc3)c2)cc1Cl`, the solubility (kinetic) was less than 1 µg/mL.

In the case of `CNc1nccc(-c2cccc3ccccc23)n1`, the solubility (kinetic) is 4.49 µg/mL (≈ 19.1 µM).

As to `O=[S+]([O-])(Nc1ccccc1)c1ccc(NCc2cccc(C(F)(F)F)c2F)cc1`, the kinetic solubility is 1.11 µg/mL (≈ 2.62 µM).

Compound `Cc1ccc(S(=O)(=O)Nc2cc(Cl)cc(C(=O)Nc3nc(-c4ccccc4)cs3)c2)cc1` had a kinetic solubility of less than 1 µg/mL.

`Cc1ccc(-c2csc(N3CCC(C(N)=O)CC3)n2)cc1` came in with a kinetic solubility of 32.9 µg/mL (≈ 109 µM).

In turn, `CCOc1ccc(CCNC(=O)c2ccc3ccccc3n2)cc1OCC` gave a solubility (kinetic) of 8.84 µg/mL (≈ 24.3 µM).

`NC(=O)C1CCN(c2nc(-c3ccc(Cl)cc3)cs2)CC1` returned a kinetic solubility of 1.52 µg/mL (≈ 4.72 µM).

Turning to `CCCS(=O)(=O)c1nc(NC2CC2)cc(-c2ccc3c(ccn3C3CC(C)(C)NC(C)(C)C3)c2)n1`, the solubility (kinetic) was less than 1 µg/mL.

In the case of `O=C(Nc1ccc(Cl)cc1Cl)c1cnc2ccccc2n1`, the solubility (kinetic) is less than 1 µg/mL.

Turning to `O=C(O)c1ccc(N2C(=O)/C(=C/c3ccc(-c4ccc([N+](=O)[O-])cc4)o3)C=C2c2ccccc2)cc1`, the solubility (kinetic) was determined as 31.4 µg/mL (≈ 65.6 µM).

As to `Cc1ccc(-n2nc3c(N4CCCC(C(=O)NCc5ccccc5C)C4)nnc(C)c3c2C)cc1` (stereo not drawn), the solubility (kinetic) is less than 1 µg/mL.

`CN(C)C(=O)C1CCN(c2nc(-c3ccc(Br)cc3)cs2)CC1` gave a solubility (kinetic) of 1.8 µg/mL (≈ 4.56 µM).

As for `O=C1CCCCc2cc(O)c(O)cc21`, the kinetic solubility was more than 28 µg/mL.

In turn, `c1coc(-c2nc3ccncc3[nH]2)c1` came in with a kinetic solubility of 13.9 µg/mL (≈ 75.1 µM).

The compound `CCCOC(=O)c1ccc(Oc2c(-c3ccc(O)cc3O)n[nH]c2C)cc1` showed a solubility (kinetic) of less than 1 µg/mL.

`COc1ccc(C2c3c(ncn(CCN4CCOCC4)c3=N)Oc3ccc4ccccc4c32)cc1OC` (stereo not drawn) gave a solubility (kinetic) of 4.21 µg/mL (≈ 8.44 µM).

For the compound `Cc1ccnc(NC(=S)N2CCN(c3ccc(Cl)c(Cl)c3)CC2)c1`, the kinetic solubility is less than 1 µg/mL.

The compound `O=C(Nc1ncc(Cc2ccc(C(F)(F)F)cc2)s1)c1cccc(-c2ccccc2)c1` had a kinetic solubility of less than 1 µg/mL.

Compound `CC(C)(C)c1ccc(C(=O)Nc2ccc3c(c2)CCCN3C(=O)c2cccs2)cc1` showed a kinetic solubility of less than 1 µg/mL.

The compound `CCCN1CNc2c(c(=O)[nH]c(=S)n2Cc2ccc(OC)c(OC)c2)C1` had a solubility (kinetic) of more than 56 µg/mL.

Take `COc1ccc(CCNC(=O)Cn2c(=O)c3cccn3c3ccc(F)cc32)cc1OC`: the kinetic solubility was 6.63 µg/mL (≈ 15.7 µM).

On to `CCOc1ccc(CNC(=O)CCCn2nc(C)c3c(C)n(-c4ccc(C)cc4)nc3c2=O)cc1`, for which the solubility (kinetic) turned out to be 1.48 µg/mL (≈ 3.12 µM).

Compound `Fc1cc(Nc2nc(-c3ccncc3)nc3ccccc23)ccc1-c1ccnc(C(F)(F)F)c1` registered a kinetic solubility of less than 1 µg/mL.
